{"source": "patent US9140705B2", "about": "“Tumor suppressor killin” (Vanderbilt University, priority 2005, dated 2015)", "molecules": {"B1": {"name": "Killin: novel 20 kDa basic nuclear DNA binding protein of 178 amino acids (SEQ ID NO:1), p53 target gene product (protein, listed as Homo sapiens)", "chain": "MDRPGPGSARPGRTVHVWGYRVEWKVRNGRKLQPSEWAGRGDLGGFKRRWKDTRATVGTTFRRRSRVSLVGELSKFPLPSDSSGGKSSSSFARGALAWCRQRNPNPSCAAAETGARTSLPKERCRGWRLGNWLHKHPHPNTCPRLPACWLPPILTERGERVPKLVPLLACYPKSKPKD"}, "B2": {"name": "6×HIS-tagged Killin: bacterially expressed full-length N-terminal His-tagged Killin (pQE32 vector) (protein, UniProt B2CW77 1-178, looked up)", "chain": "B1 chain", "modifications": "full-length N-terminal His6 tag"}, "B3": {"name": "N-terminal 123 amino acids: Killin coding region truncated at unique Eco41III site, N-terminal part (protein, UniProt B2CW77 1-123, looked up, fragment)", "chain": "MDRPGPGSARPGRTVHVWGYRVEWKVRNGRKLQPSEWAGRGDLGGFKRRWKDTRATVGTTFRRRSRVSLVGELSKFPLPSDSSGGKSSSSFARGALAWCRQRNPNPSCAAAETGARTSLPKER"}}, "key": {"[1]": {"system": "E. coli", "assay": "Bacterial expression / toxicity (colony formation) of Killin and truncated Killin", "assay_type": "cell-based", "settings": "for toxicity to E. coli (colony formation in the absence of transcriptional repression): pQE32 plasmids expressing truncated Killin", "description": "Mutagenesis experiments were performed using EMS (ethylmethanesulfonate) (Sigma) as described previously with minor modification. Exponentially growing XL-1 blue with pQE32-Killin was harvested by centrifugation, washed, and resuspended in minimal A buffer (10.5 g of K2HPO4, 4.5 g of KH2PO4, 1 g of [NH4]2SO4, and 0.5 g of sodium citrate:2H2O in 1 liter). EMS was added to the cells at a concentration of 140 μM for 1 hour during continuous shaking at 37° C. After washing with minimal A buffer, cells was diluted 1:10 in LB medium and grown for 6 hrs at 37° C. before mutagenized plasmids were purified and transformed into either GH1 (without repression, GenHunter) or XL-1 blue (with repression, Stratagene) competent cells. Ampicilin resistant colonies were scored after an overnight incubation.\nFor deletion analysis, PCR was performed to amplify different regions of Killin as specified. PCR primer sequences used for the deletions are listed below:\nThe obtained PCR products were first cloned into PCR-TRAP cloning vector and then subcloned as BglII fragments into the BamHI site of the pQE32 6XHIS-tag expression vector (Qiagen). The expression vectors were transformed into XL-1 blue under transcription repression for the transgene (−IPTG). […] As a negative control, all vectors were simultaneously transformed into XL-1 blue cells, which gave near confluent transformants under transcription repression for all constructs. Similar deletion constructs were also made as GFP fusion protein as described above and transiently transfected into the H1299 cells to visualized their ability to cause cell apoptosis based on nuclear chromosome condensation."}, "[2]": {"target": "double-stranded DNA", "assay": "In vitro DNA binding assay (gel shift, 32P-end labeled probes), double-stranded DNA template", "settings": "32P-end labeled oligo nucleotide probes, read-out: apparent Kd", "description": "(§1) In vitro transcribed and translated Killin cloned into pcDNA3.1 (Invitrogen) (K), or vector alone (V) were labeled with ^35S using Translabel (ICN) and a TnT kit (Promega). The labeled Killin and vector control were incubated with either single-stranded (ss) or double-stranded (ds) DNA cellulose (Sigma). After washing with PBS, bound proteins were resolved on a 15% SDS-PAGE gel, dried onto as 3M paper before autoradiography. For peptide binding, 42 as of Killin/N8-50 peptide (MW: 5007 dalton) was synthesized and verified with mass spec by Sigma-Genosys at a purity of at least 70%. The peptide was dissolved in PBS as 1 mg/mL stock solution before use, For in vitro DNA binding assay, 3 primers (32-35 bases in length) with arbitrary sequences were designed:\n(§2) After annealing, probes for artificial replication fork (LL and RL) or double-stranded DNA template (LL and RLM) were end-labeled with α-^32P-dATP (Perkin-Elmer) using Klenow (New England Biolab). Single-stranded oligonucleotide (LL) was end-labeled with […] (Perkin-Elmer) using T4 polynucleotide kinase (New England Biolab). […] For binding kinetics, bands from DNA-peptide complex were excised and the radioactivity was determined by scintillation counting. […]"}, "[3]": {"target": "artificial replication fork", "assay": "In vitro DNA binding assay (gel shift, 32P-end labeled probes), artificial replication fork", "settings": "32P-end labeled oligo nucleotide probes, read-out: apparent Kd", "description": "as §1, §2"}, "[4]": {"target": "single-stranded DNA", "assay": "In vitro DNA binding assay (gel shift, 32P-end labeled probes), single-stranded DNA template", "settings": "32P-end labeled oligo nucleotide probe, read-out: apparent Kd", "description": "as §1, §2"}, "[5]": {"system": "SV40 origin (ori) of replication-dependent in vitro DNA replication", "assay": "In vitro SV40 DNA replication assay", "assay_type": "biochemical, simian virus 40 (SV40)", "settings": "peptide 1 to 16 μM; HEK293T nuclear extract as source of SV40 large T antigen", "description": "The SV40 origin (ori) of replication-dependent in vitro DNA replication was carried out essentially as described previously (L1 and Kelly, 1984) with minor modifications. Briefly, the source of SV40 large T antigen was from HEK293T cells (GenHunter). The SV40 ori-containing plasmid vector pAPtag-2 (GenHunter) and a negative control vector pUC18 that lacks SV40 ori were used as templates for the in vitro DNA replication assays. 10 ng of nuclear protein extracts and 250 ng of plasmid DNA template were used for each assay. Nascent DNA synthesis in the absence and presence of Killin/N8-50 peptide after ^32P-α-dATP labeling was analyzed on a 6% TBE PAGE gel, dried onto a 3 M paper (Whatman) and visualize by autoradiography.\nTo determine if Killin/N8-50 peptide binding to DNA has any consequences in DNA replication, the inventors employed the commonly used in vitro eukayotic DNA replication assays originally described by L1 and Kelly (1984). This assay uses soluble cell-free system derived from mammalian cell nuclear extract that is capable of replicating exogenous plasmid DNA molecules containing the simian virus 40 (SV40) origin of replication. Replication in the system is completely dependent upon the addition of the SV40 large T antigen. […]"}, "[6]": {"system": "single-stranded (ss) DNA cellulose", "assay": "DNA cellulose binding of in vitro transcribed and translated 35S-labeled Killin, single-stranded", "settings": "washed with PBS", "description": "as §1, with “designed: […]” for “designed:”"}, "[7]": {"system": "double-stranded (ds) DNA cellulose", "assay": "DNA cellulose binding of in vitro transcribed and translated 35S-labeled Killin, double-stranded", "settings": "washed with PBS", "description": "as §1, with “designed: […]” for “designed:”"}}}
{"molecule": "C-terminal 124-178 amino acid residues: Killin coding region truncated at unique Eco41III site, C-terminal part (CRGWRLGNWLHKHPHPNTCPRLPACWLPPILTERGERVPKLVPLLACYPKSKPKD; UniProt B2CW77 124-178, looked up, fragment)", "values": [{"measurement": "toxicity to E. coli (colony formation in the absence of transcriptional repression)", "setting": "[1]", "result": "able to transform E. coli into colonies"}]}
{"molecule": "Killin/N8-50: chemically synthesized peptide of 42 amino acid residues corresponding to N8-50 of Killin (SARPGRTVHVWGYRVEWKVRNGRKLQPSEWAGRGDLGGFKRRW; UniProt B2CW77 8-50, looked up, fragment)", "values": [{"measurement": "Kd", "setting": "[2]", "result": 1000, "unit": "nM"}, {"measurement": "Kd", "setting": "[3]", "result": 1000, "unit": "nM"}, {"measurement": "Kd", "setting": "[4]", "result": 500, "unit": "nM"}, {"measurement": "inhibition of DNA replication in vitro", "setting": "[5]", "result": "greatly inhibit DNA replication"}]}
{"molecule": "B1", "values": [{"measurement": "binding to DNA template", "setting": "[6]", "result": "able to bind"}, {"measurement": "binding to DNA template", "setting": "[7]", "result": "able to bind"}]}
{"molecule": "B2", "values": [{"measurement": "time to growth arrest of the bacteria hosts after IPTG induction", "setting": "[1]; bacterial expression, induction by IPTG", "result": "≤ 30", "unit": "min"}]}
{"molecule": "B3", "values": [{"measurement": "toxicity to E. coli (colony formation in the absence of transcriptional repression)", "setting": "[1]", "result": "sufficient to retain toxicity to E. coli"}]}
